Data on five compounds can be found in EP4268800A1 (Prescience Biotechnology Inc., priority 2022, dated 2023).

Like-named read-outs stand apart in the source and are kept apart here.

The subject of one series is CT26 model. The experiment in a line: Mouse colon cancer model. The series is classed as in vivo, Balb/c mice. As to conditions: 5-FU 25 mg/kg, RAP-E 25 mg/kg.
The nature of series [1]: LD50 of previous intravenous injection formulation, converted to mice. As to conditions: mouse, in vivo, equivalent of the rat value in mice, read-out: lethal dosage 50% (LD50), equivalent in mice.
For series [2] the following is noted: previous intravenous injection formulation, in rats; cited from earlier work.
Another series relates to SKOV3 xenograft. In words: Xenograft ovarian tumor in mice. As to conditions: docetaxel 4 mg/kg, RAP-E 50 mg/kg. Type of series: in vivo, NOD/SCID mice. The source says:
Akt and mTOR phosphorylation are frequently detected in ovarian cancer, and SKOV3, an ovarian cancer cell line, is resistant to cis-platinum and doxorubicin.

For series [3] the following is noted: cited from earlier work.

Method for CT26 model: CT26 model on Balb/c mice was used as another animal model, classified as three groups: a control group (no drug), a comparative group (administration of 5-FU, dose: 25 mg/kg, Q3d^∗4) and the inventive group (administration of RAP-E formulation, dose: 25 mg/kg, Q3d^∗4). 6 week old Balb/c mice (BioLasco, Ilan, Taiwan) were inoculated subcutaneously with 1^∗10^5 CT26 cells (murine colorectal carcinoma cell). Following tumor inoculation, measuring the tumor size twice a week, and starting treatment when the tumor grows to 80-100 mm^3.

Take `O=c1[nH]cc(F)c(=O)[nH]1` [5-FU]: in the series on CT26 model (Q3d*4), the Mean inhibition rate is 11% and the “body weight change / toxicity” value is listed as “significant weight loss”. Besides, the “Day 16 tumor inhibition rate” value with CT26 model (Q3d*4, day 16) turned out to be 26%.

Take `CO[C@H]1C[C@@H]2CC[C@@H](C)[C@@](O)(O2)C(=O)C(=O)N2CCCC[C@H]2C(=O)O[C@H]([C@H](C)C[C@@H]2CC[C@@H](O)[C@H](OC)C2)CC(=O)[C@H](C)/C=C(\C)[C@@H](O)[C@@H](OC)C(=O)[C@H](C)C[C@H](C)/C=C/C=C/C=C/1C` [Rapamycin]: in series [1], the LD50 is 80 mg/kg. In series [2], the “lethal dosage 50% (LD50)” value is reported as 40 mg/kg.

On to `CC(=O)O[C@@]12CO[C@@H]1C[C@H](O)[C@@]1(C)C(=O)[C@H](O)C3=C(C)[C@@H](OC(=O)[C@H](O)[C@@H](NC(=O)OC(C)(C)C)c4ccccc4)C[C@@](O)([C@@H](OC(=O)c4ccccc4)[C@H]21)C3(C)C` [docetaxel], for which the Mean inhibition rate in the series on SKOV3 xenograft (Q3d*4) is listed as 53%. For the same compound, in the series on SKOV3 xenograft (Q3d*4, day 39), the “Day 39 tumor inhibition rate” value is 57%.

Take `CO[C@H]1C[C@@H]2CC[C@@H](C)[C@@](O)(O2)C(=O)C(=O)N2CCCC[C@H]2C(=O)O[C@H]([C@H](C)C[C@@H]2CC[C@@H](OCCO)[C@H](OC)C2)CC(=O)[C@H](C)/C=C(\C)[C@@H](O)[C@@H](OC)C(=O)[C@H](C)C[C@H](C)/C=C/C=C/C=C/1C` [everolimus]: the bioavailability in series [3] (in a tablet form) is ~ 20%.

Consider `CO[C@H]1C[C@@H]2CC[C@@H](C)[C@@](O)(O2)C(=O)C(=O)N2CCCC[C@H]2C(=O)O[C@H]([C@H](C)C[C@@H]2CC[C@@H](OC(=O)C(C)(CO)CO)[C@H](OC)C2)CC(=O)[C@H](C)/C=C(\C)[C@@H](O)[C@@H](OC)C(=O)[C@H](C)C[C@H](C)/C=C/C=C/C=C/1C` [temsirolimus], for which, in series [3] (via intravenous infusion), the bioavailability entry is “up to 100%”.
